What follows are compounds tested against Growth hormone secretagogue receptor type 1 (Homo sapiens, UniProt Q92847) (assay: SUPPLEMENTARY: Agonist activity at GSHR by FLIPR assay. Same assay as CHEMBL941945).
Format: functional

Growth hormone secretagogue receptor type 1, sequence (Q92847 whole entry): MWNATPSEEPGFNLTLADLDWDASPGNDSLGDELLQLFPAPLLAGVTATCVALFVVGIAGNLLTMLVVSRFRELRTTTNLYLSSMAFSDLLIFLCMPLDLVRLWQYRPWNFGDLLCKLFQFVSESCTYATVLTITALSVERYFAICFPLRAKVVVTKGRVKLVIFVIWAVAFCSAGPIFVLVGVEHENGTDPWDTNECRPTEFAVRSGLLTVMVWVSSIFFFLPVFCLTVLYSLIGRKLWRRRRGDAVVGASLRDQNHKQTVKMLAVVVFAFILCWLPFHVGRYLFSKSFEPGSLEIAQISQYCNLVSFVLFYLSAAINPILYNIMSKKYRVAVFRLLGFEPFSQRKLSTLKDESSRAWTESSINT

Compound	EC50 [µM]
COc1ccc(N2C[C@@H](C)N[C@@H](C)C2)cc1NS(=O)(=O)c1ccc(-c2ccc(Cl)s2)cc1	0.0126
Cc1ccc(-c2ccc(S(=O)(=O)Nc3cccc(N4C[C@@H](C)N[C@@H](C)C4)n3)cc2F)o1	0.001
Cc1ccc(-c2ccc(S(=O)(=O)Nc3ccnc(N4C[C@@H](C)N[C@@H](C)C4)n3)cc2F)o1	0.0316
Cc1ccc(-c2ccc(S(=O)(=O)Nc3cc(N4C[C@@H](C)N[C@@H](C)C4)ccn3)cc2F)o1	0.02
COc1ncc(N2C[C@@H](C)N[C@@H](C)C2)cc1NS(=O)(=O)c1ccc(-c2ccc(C)o2)c(F)c1	0.0631
COc1ccc(N2C[C@@H](C)N[C@@H](C)C2)nc1NS(=O)(=O)c1ccc(-c2cc(C)cs2)cc1Cl	0.00501
Cc1ccc(-c2ccc(S(=O)(=O)Nc3cc(N4C[C@@H](C)N[C@@H](C)C4)c[nH]c3=O)cc2F)o1	0.01
COc1ccc(N2C[C@@H](C)N[C@@H](C)C2)nc1NS(=O)(=O)c1ccc(-c2ccoc2)cc1Cl	0.0251
COc1ccc(NS(=O)(=O)c2sc3ccc(Cl)cc3c2C)cc1N1C[C@@H](C)N[C@@H](C)C1	0.0316
COc1ccc(NS(=O)(=O)c2ccc3ccccc3c2)cc1N1C[C@@H](C)N[C@@H](C)C1	0.0158
COc1ccc(NS(=O)(=O)c2cccc3ccccc23)cc1N1C[C@@H](C)N[C@@H](C)C1	0.0316
COc1ccc(NS(=O)(=O)/C=C/c2ccccc2)cc1N1C[C@@H](C)N[C@@H](C)C1	0.0158
COc1ccc(NS(=O)(=O)c2ccc(Oc3ccccc3)cc2)cc1N1C[C@@H](C)N[C@@H](C)C1	0.126
COc1ccc(NS(=O)(=O)c2cccc3cccnc23)cc1N1C[C@@H](C)N[C@@H](C)C1	0.398
COc1ccc(NS(=O)(=O)c2ccc(Cl)c(Cl)c2)cc1N1C[C@@H](C)N[C@@H](C)C1	0.0631
COc1ccc(NS(=O)(=O)c2ccc(-n3cccn3)cc2)cc1N1C[C@@H](C)N[C@@H](C)C1	0.00631
COc1ccc(NS(=O)(=O)c2ccc(-c3cccs3)cc2)cc1N1C[C@@H](C)N[C@@H](C)C1	0.001
COc1ccc(NS(=O)(=O)c2ccc(-c3cccc(C)n3)s2)cc1N1C[C@@H](C)N[C@@H](C)C1	0.000631
COc1ccc(NS(=O)(=O)c2ccc(N3CCCC3=O)cc2)cc1N1C[C@@H](C)N[C@@H](C)C1	0.0794
COc1ccc(N2C[C@@H](C)N[C@@H](C)C2)cc1NS(=O)(=O)c1ccc2ccccc2c1	0.00794
COc1ccc(N2C[C@@H](C)N[C@@H](C)C2)cc1NS(=O)(=O)c1ccc(Br)s1	0.126

Compound	EC50 [µM]
COc1ccc(N2C[C@@H](C)N[C@@H](C)C2)cc1NS(=O)(=O)c1ccc(-c2cccc(C)n2)cc1	0.01
COc1ccc(N2C[C@@H](C)N[C@@H](C)C2)cc1NS(=O)(=O)c1ccc(-c2cccc(C)n2)s1	0.01
COc1ccc(N2C[C@@H](C)N[C@@H](C)C2)cc1NS(=O)(=O)c1cccc(Cl)c1Cl	0.0158
COc1ccc(N2C[C@@H](C)N[C@@H](C)C2)cc1NS(=O)(=O)c1cccc2cccnc12	0.0501
COc1ccc(N2C[C@@H](C)N[C@@H](C)C2)cc1NS(=O)(=O)c1ccc(Cl)c(Cl)c1	0.0501
COc1ccc(N2C[C@@H](C)N[C@@H](C)C2)cc1NS(=O)(=O)c1ccc(-c2cnco2)cc1	0.0501
COc1ccc(N2C[C@@H](C)N[C@@H](C)C2)cc1NS(=O)(=O)c1ccc(-c2cccnc2)cc1	0.1
COc1ccc(N2C[C@@H](C)N[C@@H](C)C2)cc1NS(=O)(=O)c1ccc(-c2ccsc2)cc1	0.00501
COc1ccc(N2C[C@@H](C)N[C@@H](C)C2)cc1NS(=O)(=O)c1ccc(-c2cccnc2)s1	0.1
COc1ccc(N2C[C@@H](C)N[C@@H](C)C2)cc1NS(=O)(=O)c1ccc(-c2ccsc2)s1	0.00501
COc1ccc(NS(=O)(=O)c2ccc(-c3cccc(C)n3)cc2)cc1N1C[C@@H](C)N[C@@H](C)C1	0.0158
COc1ccc(N2C[C@@H](C)N[C@@H](C)C2)cc1NS(=O)(=O)c1cc2cc(Cl)ccc2s1	0.0251
COc1ccc(NS(=O)(=O)c2ccc(-c3cnco3)cc2)cc1N1C[C@@H](C)N[C@@H](C)C1	0.0398
COc1ccc(N2C[C@@H](C)N[C@@H](C)C2)cc1NS(=O)(=O)c1cccc(Br)c1	0.158
COc1cc(F)c(N2C[C@@H](C)N[C@@H](C)C2)cc1NS(=O)(=O)c1ccc(-c2cccs2)cc1	0.00794
COc1cc(F)c(N2C[C@@H](C)N[C@@H](C)C2)cc1NS(=O)(=O)c1ccc(-c2ccccn2)s1	0.02
COc1ccc(N2C[C@@H](C)N[C@@H](C)C2)cc1NS(=O)(=O)c1ccc(-c2cccs2)s1	0.00398
C[C@@H]1CN(c2cc(NS(=O)(=O)c3ccc(-c4cccs4)cc3)ccc2C#N)C[C@H](C)N1	0.1
COc1ccc(Oc2cccc(S(=O)(=O)Nc3cc(N4C[C@@H](C)N[C@@H](C)C4)ccc3OC)c2)cc1	0.1
COc1ccc(N2C[C@@H](C)N[C@@H](C)C2)cc1NS(=O)(=O)c1csc2ccccc12	0.01
COc1ccc(N2C[C@@H](C)N[C@@H](C)C2)cc1NS(=O)(=O)c1sc2ccc(F)cc2c1C	0.0316

Compound	EC50 [µM]
COc1ccc(NS(=O)(=O)c2ccc(-c3ccsc3)cc2)cc1N1C[C@@H](C)N[C@@H](C)C1	0.00251
COc1ccc(N2C[C@@H](C)N[C@@H](C)C2)cc1NS(=O)(=O)c1cccc(-c2cccs2)c1	0.0158
COc1ccc(NS(=O)(=O)c2ccc(-c3ccsc3)s2)cc1N1C[C@@H](C)N[C@@H](C)C1	0.00158
COc1ccc(NS(=O)(=O)c2ccc(-c3ccccc3)s2)cc1N1C[C@@H](C)N[C@@H](C)C1	0.001
C[C@@H]1CN(c2ccc(O)c(NS(=O)(=O)c3ccc(-c4ccccn4)s3)c2)C[C@H](C)N1	0.0251
COc1ccc(N2C[C@@H](C)N[C@@H](C)C2)cc1NS(=O)(=O)c1ccc2c(Cl)cccc2c1	0.00158
COc1ccc(NS(=O)(=O)c2ccc(-c3cnco3)s2)cc1N1C[C@@H](C)N[C@@H](C)C1	0.0398
COc1ccc(N2C[C@@H](C)N[C@@H](C)C2)cc1NS(=O)(=O)c1ccc(-c2cnccc2OC)s1	0.0316
CCOc1ccc(N2C[C@@H](C)N[C@@H](C)C2)cc1NS(=O)(=O)c1ccc(-c2cccs2)cc1	0.0126
CC(C)Oc1ccc(N2C[C@@H](C)N[C@@H](C)C2)cc1NS(=O)(=O)c1ccc(-c2cccs2)cc1	0.0158
COc1ccc(NS(=O)(=O)c2ccc(Br)cc2C)cc1N1C[C@@H](C)N[C@@H](C)C1	0.0398
C[C@@H]1CN(c2cccc(NS(=O)(=O)c3cccc4ccccc34)c2)C[C@H](C)N1	0.01
COCc1cccc(-c2ccc(S(=O)(=O)Nc3cc(N4C[C@@H](C)N[C@@H](C)C4)ccc3OC)cc2)c1	0.00631
C[C@@H]1CN(c2cccc(NS(=O)(=O)c3ccc4ccccc4c3)c2)C[C@H](C)N1	0.0158
C[C@@H]1CN(c2cccc(NS(=O)(=O)c3cccc(Cl)c3Cl)c2)C[C@H](C)N1	0.02
C[C@@H]1CN(c2cccc(NS(=O)(=O)c3cc4ccccc4s3)c2)C[C@H](C)N1	0.0316
C[C@@H]1CN(c2cccc(NS(=O)(=O)c3ccc(-c4cccs4)cc3)c2)C[C@H](C)N1	0.00631
C[C@@H]1CN(c2cccc(NS(=O)(=O)c3ccc(-c4ccc(Cl)s4)cc3)c2)C[C@H](C)N1	0.0251
COc1ccc(NS(=O)(=O)c2ccc(-c3ccccc3C)cc2)cc1N1C[C@@H](C)N[C@@H](C)C1	0.1
COc1ccc(N2C[C@@H](C)N[C@@H](C)C2)cc1NS(=O)(=O)c1ccc(-c2ccoc2)cc1	0.00794
COc1ccc(NS(=O)(=O)c2ccc(-c3cccs3)s2)cc1N1C[C@@H](C)N[C@@H](C)C1	0.002

Compound	EC50 [µM]
C[C@@H]1CN(c2cccc(NS(=O)(=O)c3ccc(-n4cccn4)cc3)c2)C[C@H](C)N1	0.0251
COc1ccc(NS(=O)(=O)c2ccc(Br)c(C)c2)cc1N1C[C@@H](C)N[C@@H](C)C1	0.0398
COc1ccc(NS(=O)(=O)c2ccc(-c3cccs3)cc2F)cc1N1C[C@@H](C)N[C@@H](C)C1	0.00251
COc1ccc(NS(=O)(=O)c2ccc(-c3cccs3)cc2C)cc1N1C[C@@H](C)N[C@@H](C)C1	0.001
COc1ccc(NS(=O)(=O)c2ccc(-c3ccc(F)cc3)cc2)cc1N1C[C@@H](C)N[C@@H](C)C1	0.02
COc1ccc(NS(=O)(=O)c2ccc(-c3cccc(F)c3F)cc2)cc1N1C[C@@H](C)N[C@@H](C)C1	0.0316
C[C@@H]1CN(c2ccc(F)c(NS(=O)(=O)c3ccc(-c4cccs4)cc3)c2)C[C@H](C)N1	0.00501
COc1ccc(N2C[C@@H](C)N[C@@H](C)C2)cc1NS(=O)(=O)c1ccc(-c2cc(C)cs2)s1	0.002
COc1ccc(NS(=O)(=O)c2ccc(-c3cc(C)cs3)s2)cc1N1C[C@@H](C)N[C@@H](C)C1	0.000794
COc1ccc(NS(=O)(=O)c2ccc(-c3ccc(C)cc3)cc2)cc1N1C[C@@H](C)N[C@@H](C)C1	0.0794
COc1ccc(N2C[C@@H](C)N[C@@H](C)C2)cc1NS(=O)(=O)c1ccc(-c2ccccc2C)s1	0.0251
COc1ccc(NS(=O)(=O)c2ccc(-c3ccccc3C)s2)cc1N1C[C@@H](C)N[C@@H](C)C1	0.0501
COc1ccc(NS(=O)(=O)c2ccc(-c3c(C)cccc3C)s2)cc1N1C[C@@H](C)N[C@@H](C)C1	0.0251
COc1ccc(NS(=O)(=O)c2ccc(-c3cccc(C)c3)s2)cc1N1C[C@@H](C)N[C@@H](C)C1	0.00398
COc1ccc(NS(=O)(=O)c2ccc(-c3ccc(F)cc3)s2)cc1N1C[C@@H](C)N[C@@H](C)C1	0.1
COc1ccc(N2C[C@@H](C)N[C@@H](C)C2)cc1NS(=O)(=O)c1ccc(-c2ccccc2Cl)s1	0.00251
COc1ccc(N2C[C@@H](C)N[C@@H](C)C2)cc1NS(=O)(=O)c1ccc(-c2cccc(F)c2)s1	0.0316
COc1ccc(N2C[C@@H](C)N[C@@H](C)C2)cc1NS(=O)(=O)c1ccc(-c2ccc(C)cc2)s1	0.0316
Cc1ccc(N2C[C@@H](C)N[C@@H](C)C2)cc1NS(=O)(=O)c1ccc(Br)cc1	0.1
COc1ccc(NS(=O)(=O)c2ccc(-c3ccoc3)s2)cc1N1C[C@@H](C)N[C@@H](C)C1	0.0126
Cc1ccc(N2C[C@@H](C)N[C@@H](C)C2)cc1NS(=O)(=O)c1ccc2ccccc2c1	0.00501

From ChEMBL document CHEMBL2364335, “Structure-activity relationship data for chemical series of achiral agonists of the ghrelin (growth hormone secretagogue) receptor (Supplementary Bioactivity Data for publication CHEMBL1140573)”
